Type in all cases: functional
Assay [1] addresses T1, Apoptotic protease-activating factor 1 (Homo sapiens, UniProt O14727).
T1 sequence (O14727 whole entry): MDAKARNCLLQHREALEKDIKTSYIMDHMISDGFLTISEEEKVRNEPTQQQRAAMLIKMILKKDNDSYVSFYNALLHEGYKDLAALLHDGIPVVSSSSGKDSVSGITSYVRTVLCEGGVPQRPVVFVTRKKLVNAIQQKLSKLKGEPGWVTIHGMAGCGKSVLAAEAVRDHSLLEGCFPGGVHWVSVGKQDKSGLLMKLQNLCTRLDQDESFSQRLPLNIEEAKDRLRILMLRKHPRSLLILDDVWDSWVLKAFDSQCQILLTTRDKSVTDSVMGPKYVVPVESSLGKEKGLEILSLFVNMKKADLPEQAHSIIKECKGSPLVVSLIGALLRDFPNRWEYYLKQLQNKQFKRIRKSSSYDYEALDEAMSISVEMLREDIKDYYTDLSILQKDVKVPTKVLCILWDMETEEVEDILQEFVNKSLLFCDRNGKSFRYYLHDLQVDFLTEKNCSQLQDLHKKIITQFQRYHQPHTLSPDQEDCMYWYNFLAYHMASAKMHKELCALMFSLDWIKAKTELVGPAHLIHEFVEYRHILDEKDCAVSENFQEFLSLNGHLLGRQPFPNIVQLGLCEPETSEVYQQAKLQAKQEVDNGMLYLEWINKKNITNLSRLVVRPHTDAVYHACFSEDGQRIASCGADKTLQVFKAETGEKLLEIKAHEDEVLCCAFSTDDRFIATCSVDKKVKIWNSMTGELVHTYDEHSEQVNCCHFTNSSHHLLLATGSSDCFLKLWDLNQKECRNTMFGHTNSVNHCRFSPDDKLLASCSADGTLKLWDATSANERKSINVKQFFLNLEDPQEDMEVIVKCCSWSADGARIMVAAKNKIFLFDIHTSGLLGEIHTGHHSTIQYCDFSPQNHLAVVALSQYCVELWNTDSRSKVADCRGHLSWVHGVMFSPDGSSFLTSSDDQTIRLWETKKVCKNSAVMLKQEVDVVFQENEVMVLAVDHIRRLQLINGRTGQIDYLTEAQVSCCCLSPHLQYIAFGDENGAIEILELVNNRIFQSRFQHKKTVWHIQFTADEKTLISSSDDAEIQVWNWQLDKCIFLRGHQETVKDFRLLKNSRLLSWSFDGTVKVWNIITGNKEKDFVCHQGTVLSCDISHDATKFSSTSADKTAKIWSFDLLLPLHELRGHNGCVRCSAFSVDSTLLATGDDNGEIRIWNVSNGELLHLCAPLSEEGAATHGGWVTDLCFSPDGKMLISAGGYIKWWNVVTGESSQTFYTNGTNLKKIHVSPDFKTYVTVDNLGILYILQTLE

The target of assay [2] is T2, Short transient receptor potential channel 4 (Mus musculus, UniProt Q9QUQ5).
T2 sequence (Q9QUQ5 whole entry): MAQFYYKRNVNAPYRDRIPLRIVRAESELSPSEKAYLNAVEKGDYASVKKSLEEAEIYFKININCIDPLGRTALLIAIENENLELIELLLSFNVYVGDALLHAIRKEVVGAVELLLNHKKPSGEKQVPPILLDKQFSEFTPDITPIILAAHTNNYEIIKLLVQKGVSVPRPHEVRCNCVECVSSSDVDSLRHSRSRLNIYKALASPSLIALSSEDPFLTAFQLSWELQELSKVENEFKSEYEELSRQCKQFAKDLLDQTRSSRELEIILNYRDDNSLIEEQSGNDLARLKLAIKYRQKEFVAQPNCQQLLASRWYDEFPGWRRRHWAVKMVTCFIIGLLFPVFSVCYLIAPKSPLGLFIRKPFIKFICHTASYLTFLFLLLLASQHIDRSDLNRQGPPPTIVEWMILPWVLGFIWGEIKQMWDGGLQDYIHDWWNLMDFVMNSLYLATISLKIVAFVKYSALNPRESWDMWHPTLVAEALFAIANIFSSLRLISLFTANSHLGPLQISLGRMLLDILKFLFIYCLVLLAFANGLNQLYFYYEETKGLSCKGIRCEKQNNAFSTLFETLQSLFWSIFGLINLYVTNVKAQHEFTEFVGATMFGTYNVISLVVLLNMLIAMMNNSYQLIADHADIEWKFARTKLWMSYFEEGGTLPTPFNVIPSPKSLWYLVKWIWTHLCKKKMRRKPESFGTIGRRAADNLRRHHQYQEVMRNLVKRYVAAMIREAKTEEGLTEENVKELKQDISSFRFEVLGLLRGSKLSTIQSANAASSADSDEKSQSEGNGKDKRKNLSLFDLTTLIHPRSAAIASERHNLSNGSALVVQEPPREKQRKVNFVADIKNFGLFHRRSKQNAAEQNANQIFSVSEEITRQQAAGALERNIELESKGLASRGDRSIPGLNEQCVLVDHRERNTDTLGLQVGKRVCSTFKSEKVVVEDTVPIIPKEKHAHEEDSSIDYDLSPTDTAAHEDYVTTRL
The assay can be described thus: mouse TRPC4 channel activators, dose response, cell-based, HEK293 TRPC4/mu-opioid, Fluo-4 calcium (AID 434937).

Assay [3] concerns the target T3, Sentrin-specific protease 8 (Homo sapiens, UniProt Q96LD8).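 Also: luminescence read-out of SENP8 inhibition, dose-response confirmation following an ultra-high-throughput screen.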
T3 sequence (Q96LD8 whole entry): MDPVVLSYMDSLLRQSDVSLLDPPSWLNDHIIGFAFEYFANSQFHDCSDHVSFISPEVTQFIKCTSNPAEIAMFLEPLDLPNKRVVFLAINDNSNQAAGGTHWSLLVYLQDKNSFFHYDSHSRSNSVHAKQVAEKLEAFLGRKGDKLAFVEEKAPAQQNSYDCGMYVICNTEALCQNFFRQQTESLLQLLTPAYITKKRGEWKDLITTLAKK

The target of assay [4] is T4, Sentrin-specific protease 6 (Homo sapiens, UniProt Q9GZR1).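 Also: Luminescence-based dose-response confirmatory assay of SENP6 inhibition, following up an ultra-high-throughput screen.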
T4 sequence (Q9GZR1 whole entry): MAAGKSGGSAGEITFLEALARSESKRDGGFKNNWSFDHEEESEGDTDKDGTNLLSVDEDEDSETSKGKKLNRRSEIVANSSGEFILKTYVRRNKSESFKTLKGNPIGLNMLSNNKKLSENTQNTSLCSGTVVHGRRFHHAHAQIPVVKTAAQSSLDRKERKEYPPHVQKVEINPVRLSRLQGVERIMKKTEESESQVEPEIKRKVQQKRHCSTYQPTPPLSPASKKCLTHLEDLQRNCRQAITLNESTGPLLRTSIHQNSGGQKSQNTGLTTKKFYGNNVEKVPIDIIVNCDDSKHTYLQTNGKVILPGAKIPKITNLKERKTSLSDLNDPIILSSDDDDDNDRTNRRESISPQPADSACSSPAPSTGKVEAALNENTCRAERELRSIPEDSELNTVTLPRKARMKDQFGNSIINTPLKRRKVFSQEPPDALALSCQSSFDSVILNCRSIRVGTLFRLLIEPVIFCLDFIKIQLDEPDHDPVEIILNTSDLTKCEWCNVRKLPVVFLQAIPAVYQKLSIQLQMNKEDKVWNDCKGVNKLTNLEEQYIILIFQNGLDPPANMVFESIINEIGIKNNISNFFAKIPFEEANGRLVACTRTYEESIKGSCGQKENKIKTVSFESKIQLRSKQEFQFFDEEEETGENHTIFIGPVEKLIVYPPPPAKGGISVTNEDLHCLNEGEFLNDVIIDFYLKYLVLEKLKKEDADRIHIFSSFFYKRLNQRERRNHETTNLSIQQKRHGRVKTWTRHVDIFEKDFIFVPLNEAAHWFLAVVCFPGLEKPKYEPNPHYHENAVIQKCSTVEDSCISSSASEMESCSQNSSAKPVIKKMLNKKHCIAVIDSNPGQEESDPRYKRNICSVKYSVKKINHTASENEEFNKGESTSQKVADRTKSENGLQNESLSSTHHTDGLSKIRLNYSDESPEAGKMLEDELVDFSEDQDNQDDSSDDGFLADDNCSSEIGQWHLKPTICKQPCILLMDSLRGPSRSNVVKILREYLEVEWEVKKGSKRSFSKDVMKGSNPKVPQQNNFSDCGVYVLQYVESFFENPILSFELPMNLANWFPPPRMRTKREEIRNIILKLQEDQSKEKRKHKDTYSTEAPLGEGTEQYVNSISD

Assay [5] in a line: Luminescence Cell-Based Dose Retest to Confirm Inhibitors of Cancer Stem Cells. [Related pubchem assays (depositor defined):AID2717, AID2721]. The conditions noted are these: Homo sapiens.
Assay [6] concerns the target T5, Sentrin-specific protease 7 (Homo sapiens, UniProt Q9BQF6).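 Also: Luminescence-based dose-response confirmation of ultra-high-throughput screening hits, measuring inhibition of SENP7.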
T5 sequence (Q9BQF6 whole entry): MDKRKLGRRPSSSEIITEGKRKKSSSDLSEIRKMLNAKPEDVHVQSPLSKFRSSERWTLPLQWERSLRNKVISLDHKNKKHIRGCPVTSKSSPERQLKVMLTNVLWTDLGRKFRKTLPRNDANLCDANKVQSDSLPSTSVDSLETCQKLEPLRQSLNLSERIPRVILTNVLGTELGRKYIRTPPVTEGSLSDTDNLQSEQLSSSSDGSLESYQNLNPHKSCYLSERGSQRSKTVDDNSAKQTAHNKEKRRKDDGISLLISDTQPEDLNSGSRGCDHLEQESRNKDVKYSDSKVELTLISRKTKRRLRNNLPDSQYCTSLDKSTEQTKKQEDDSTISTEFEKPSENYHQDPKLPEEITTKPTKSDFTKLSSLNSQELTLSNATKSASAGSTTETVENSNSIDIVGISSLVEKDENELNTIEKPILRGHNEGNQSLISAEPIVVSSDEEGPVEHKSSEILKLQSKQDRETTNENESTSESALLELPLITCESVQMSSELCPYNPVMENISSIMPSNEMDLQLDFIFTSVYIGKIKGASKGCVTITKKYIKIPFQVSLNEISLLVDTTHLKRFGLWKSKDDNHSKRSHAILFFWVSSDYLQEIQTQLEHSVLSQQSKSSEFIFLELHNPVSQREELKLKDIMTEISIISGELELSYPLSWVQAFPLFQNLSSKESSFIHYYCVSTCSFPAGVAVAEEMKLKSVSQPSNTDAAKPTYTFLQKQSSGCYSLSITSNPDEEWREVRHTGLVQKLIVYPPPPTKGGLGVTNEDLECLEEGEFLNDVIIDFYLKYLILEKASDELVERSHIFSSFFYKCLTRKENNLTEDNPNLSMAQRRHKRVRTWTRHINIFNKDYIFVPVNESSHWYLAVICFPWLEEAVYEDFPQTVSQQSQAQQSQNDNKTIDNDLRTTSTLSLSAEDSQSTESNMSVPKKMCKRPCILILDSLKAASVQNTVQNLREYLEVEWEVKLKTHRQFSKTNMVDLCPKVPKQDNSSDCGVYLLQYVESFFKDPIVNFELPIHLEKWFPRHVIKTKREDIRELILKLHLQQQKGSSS

Assay [7] has as its target Ras and Rab interactor 1/Tyrosine-protein kinase ABL1 (Homo sapiens, UniProt P00519+Q13671).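 Also: biochemical TR-FRET dose-response test measuring inhibition of binding between Rin1 and Abl proteins.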

What is called IC50 is the point on the concentration scale where inhibition reaches its midpoint. What is called EC50 is the concentration at which the effect is half-maximal. The AC50 is the concentration at which the activity in the assay is half-maximal.

Molecules are shown by their SMILES. The source made the active and inactive calls. Rule as the data show it, for most assays here: actives have a measured IC50 and inactives only a lower limit.
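For AC50 in this document: cells exposed to compound for roughly 70 hours or longer before luminescence read.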

Sequence of Ras and Rab interactor 1/Tyrosine-protein kinase ABL1 (P00519 whole entry): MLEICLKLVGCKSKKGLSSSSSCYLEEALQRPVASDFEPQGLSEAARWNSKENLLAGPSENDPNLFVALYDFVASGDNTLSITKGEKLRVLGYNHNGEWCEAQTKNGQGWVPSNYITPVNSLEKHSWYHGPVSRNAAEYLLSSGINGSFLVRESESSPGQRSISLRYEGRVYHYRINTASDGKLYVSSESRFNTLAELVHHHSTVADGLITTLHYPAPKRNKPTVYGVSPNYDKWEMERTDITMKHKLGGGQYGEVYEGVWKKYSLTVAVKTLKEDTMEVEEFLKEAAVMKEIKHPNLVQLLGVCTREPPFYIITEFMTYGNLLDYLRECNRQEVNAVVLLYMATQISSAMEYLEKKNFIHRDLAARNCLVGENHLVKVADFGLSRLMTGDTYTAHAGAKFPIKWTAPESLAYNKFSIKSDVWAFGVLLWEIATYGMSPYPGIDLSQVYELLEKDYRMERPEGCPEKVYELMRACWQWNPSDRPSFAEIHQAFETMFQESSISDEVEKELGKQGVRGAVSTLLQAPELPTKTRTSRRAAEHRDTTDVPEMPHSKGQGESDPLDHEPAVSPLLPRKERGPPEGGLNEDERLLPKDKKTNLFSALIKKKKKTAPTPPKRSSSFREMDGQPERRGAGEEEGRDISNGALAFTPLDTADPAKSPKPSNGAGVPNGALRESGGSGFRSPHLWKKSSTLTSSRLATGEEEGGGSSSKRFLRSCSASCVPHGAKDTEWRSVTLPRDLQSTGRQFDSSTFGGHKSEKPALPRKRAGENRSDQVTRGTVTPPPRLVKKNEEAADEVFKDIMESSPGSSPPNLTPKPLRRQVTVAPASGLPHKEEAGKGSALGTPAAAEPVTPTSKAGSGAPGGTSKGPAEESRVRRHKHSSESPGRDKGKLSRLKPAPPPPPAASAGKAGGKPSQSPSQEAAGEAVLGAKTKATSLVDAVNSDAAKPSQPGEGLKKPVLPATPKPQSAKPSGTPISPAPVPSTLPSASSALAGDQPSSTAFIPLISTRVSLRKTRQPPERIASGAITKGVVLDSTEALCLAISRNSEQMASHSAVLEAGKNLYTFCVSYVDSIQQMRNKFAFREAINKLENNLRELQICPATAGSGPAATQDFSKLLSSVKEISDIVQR
Sequence of Ras and Rab interactor 1/Tyrosine-protein kinase ABL1 (Q13671 whole entry): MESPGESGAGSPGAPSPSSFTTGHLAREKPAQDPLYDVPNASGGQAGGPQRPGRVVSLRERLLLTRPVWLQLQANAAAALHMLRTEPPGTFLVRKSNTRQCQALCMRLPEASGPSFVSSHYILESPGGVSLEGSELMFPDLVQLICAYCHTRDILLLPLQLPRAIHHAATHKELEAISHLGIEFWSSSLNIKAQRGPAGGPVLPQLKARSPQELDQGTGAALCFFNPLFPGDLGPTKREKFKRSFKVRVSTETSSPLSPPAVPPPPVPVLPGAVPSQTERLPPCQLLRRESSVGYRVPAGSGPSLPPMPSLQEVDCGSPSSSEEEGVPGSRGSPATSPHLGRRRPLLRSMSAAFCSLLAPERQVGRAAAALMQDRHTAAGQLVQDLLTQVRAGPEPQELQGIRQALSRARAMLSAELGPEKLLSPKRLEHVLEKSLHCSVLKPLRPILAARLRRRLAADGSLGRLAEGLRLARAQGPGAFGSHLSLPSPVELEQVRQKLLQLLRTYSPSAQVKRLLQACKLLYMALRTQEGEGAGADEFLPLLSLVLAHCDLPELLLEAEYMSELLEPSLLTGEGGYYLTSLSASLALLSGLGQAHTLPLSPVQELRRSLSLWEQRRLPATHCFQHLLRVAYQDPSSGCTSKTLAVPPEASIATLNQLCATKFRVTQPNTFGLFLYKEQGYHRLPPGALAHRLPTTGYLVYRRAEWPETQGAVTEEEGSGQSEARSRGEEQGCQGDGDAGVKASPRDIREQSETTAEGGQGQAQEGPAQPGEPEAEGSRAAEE

In the case of `CC(C)(C)C(=O)[C@@H]1[C@@H]2C(=O)N(C3CCCCC3)C(=O)[C@@H]2[C@H]2c3ccccc3C=CN12`, the IC50 in assay [1] is 10.5 µM (active).

On to `CN(C)C(CNC(=O)Cc1cccc(C(F)(F)F)c1)c1ccco1` (configuration not stated), for which the EC50 in assay [2] is 0.335 µM (active).

For `COc1cc2ccccc2cc1C(=O)Nc1ccccc1Cl`, the IC50 in assay [3] is 17.2 µM (active); in assay [4], 10.2 µM (active); in assay [6] it was 8.41 µM (active). In addition, in assay [5], the AC50 is 4.58 µM (active).

For the compound `CC1CCN(CCCNS(=O)(=O)c2cc(Br)cc3c2N(C(=O)C2CC2)CC3)CC1`, in assay [2], the EC50 is 0.299 µM (active).

Consider `O=C(CCn1c2c(c3ccccc31)CCCC2)NNC(=O)c1ccc([N+](=O)[O-])cc1`, for which the IC50 in assay [1] is 1.8 µM (active).

`CCCN(CC(=O)Nc1ccccc1C)C(=O)c1sc2ccccc2c1Cl`: the IC50 in assay [1] was > 100 µM (inactive).

As to `COc1cccc(NC(=O)Nc2ccc3c(c2)CCC3)c1`, the values for the IC50 in assay [3], in assay [4] and in assay [6] were > 100 µM (inactive), > 100 µM (inactive) and 4.28 µM (active), respectively.

In the case of `CCOC(=O)C1(CCc2ccccc2)CCN(Cc2ccc(OC)cc2)CC1`, in assay [2], the EC50 is 0.267 µM (active).

Turning to `Nc1nc(O)cc(NC2CCCC2)n1`, the IC50 in assay [7] was 12.4 µM (inactive).

On to `COc1ccc(CCC(=O)Nc2c(-c3ccc(N(C)C)cc3)n[nH]c2O)cc1`, for which the IC50 in assay [7] is > 73.5 µM (inactive).

Take `CN(C(=O)c1ccc(NC(=O)Cc2cccc(NC(=O)C3CCN(C(=O)C4CCCC4)CC3)c2)cc1)C1CC1`: the IC50 in assay [7] is 21.2 µM (inactive).

Take `Cc1nc(N/N=C/c2ccc(O)cc2O)cc(N2CCOCC2)n1`: the IC50 in assay [7] was > 2.72 µM (active).

(Values after ChEMBL document CHEMBL1201862, “PubChem BioAssay data set” (2004).)
